Key:
[1] = target: T1, ACAA2 3-ketoacyl-CoA thiolase, mitochondrial (Homo sapiens, UniProt P42765); assay: Cysteine liganding, probe competition; type: binding
T1 construct: Cells were resuspended in cold PBS on ice and sonicated with a probe sonicator to achieve lysis; endogenous in cells
T1 sequence (P42765 1-397): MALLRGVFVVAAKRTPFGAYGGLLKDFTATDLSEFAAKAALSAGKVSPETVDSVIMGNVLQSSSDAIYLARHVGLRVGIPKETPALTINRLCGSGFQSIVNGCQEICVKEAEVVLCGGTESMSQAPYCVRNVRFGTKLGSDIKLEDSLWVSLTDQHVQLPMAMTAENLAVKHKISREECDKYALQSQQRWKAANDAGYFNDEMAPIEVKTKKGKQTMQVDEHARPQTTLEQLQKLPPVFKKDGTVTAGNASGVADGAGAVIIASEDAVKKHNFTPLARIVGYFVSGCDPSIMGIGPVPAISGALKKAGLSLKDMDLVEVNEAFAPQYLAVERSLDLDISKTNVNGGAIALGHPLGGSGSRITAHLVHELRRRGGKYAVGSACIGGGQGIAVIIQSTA
Procedure, shortened: (§1)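 Read-out is loss of desthiobiotin iodoacetamide labelling at cysteines, measured on streptavidin-enriched tryptic peptides. Compound preincubation ran 1 hr at 25° C in PBS lysate holding 5 mg/ml proteome before the probe was added.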

[2] = target: T2, RING1 E3 ubiquitin-protein ligase RING1 (Homo sapiens, UniProt Q06587); assay: Cysteine liganding, probe competition; type: binding
T2 construct: Cells were resuspended in cold PBS on ice and sonicated with a probe sonicator to achieve lysis; endogenous in cells
T2 sequence (Q06587 1-406): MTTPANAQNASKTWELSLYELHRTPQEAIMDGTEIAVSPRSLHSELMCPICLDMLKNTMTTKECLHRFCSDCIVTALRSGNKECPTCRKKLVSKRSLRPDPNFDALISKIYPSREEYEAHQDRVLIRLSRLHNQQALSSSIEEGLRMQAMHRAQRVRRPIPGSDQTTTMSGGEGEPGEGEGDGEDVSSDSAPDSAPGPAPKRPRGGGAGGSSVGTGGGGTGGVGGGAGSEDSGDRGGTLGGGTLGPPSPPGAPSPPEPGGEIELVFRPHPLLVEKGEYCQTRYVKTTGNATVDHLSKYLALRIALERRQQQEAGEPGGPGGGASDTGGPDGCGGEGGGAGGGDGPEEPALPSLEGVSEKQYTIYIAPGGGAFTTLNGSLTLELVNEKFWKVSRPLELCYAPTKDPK
Procedure, shortened: as §1

SMILES	Liganded ([1]; ACAA2 Res# 382, uniprot P42765)	Liganded ([2]; RING1 Res# 72, uniprot Q06587)	100 Max ([1]; uniprot P42765)	100 ave ([1]; uniprot P42765)	500 Max ([1]; uniprot P42765)	500 ave ([1]; uniprot P42765)	Liganded ([2]; RING1 Res# 51, uniprot Q06587)	100 Max ([2]; uniprot Q06587)	100 ave ([2]; uniprot Q06587)
COc1ccc2c(c1)CCCN2C(=O)CCl [KB02]	YES	YES	–	–	–	–	–	–	–
O=C(CCl)Nc1cc(C(F)(F)F)cc(C(F)(F)F)c1 [KBO3]	–	YES	3.45	3.45	−0.69	−0.69	YES	18.1	0.5
